Values after ≈ are worked out from the molar mass of the structure shown.

Assay [1] concerns lymphocytic leukemia cells of the strain P388 (PS tumors). The assay can be described thus: Survival of mice implanted with lymphocytic leukemia P388 (NCI Protocol 1.200). As to conditions: mouse, in vivo.
Protocol: The effectiveness of alkaloid compounds against lymphocytic leukemia cells of the strain P388 (PS tumors) implanted in mice is another method of determining activity. These assays are made according to the National Cancer Institute Protocol 1.200 described in Geran et al. referred to above. […] Starting 24 hr. after the tumor implantation, previously determined dosages of each compound were injected intraperitoneally once a day for 9 days. Survival time of treated leukemic mice is compared to that of untreated leukemic mice (T/C×100). A T/C value of 100% indicated no activity.
^2 All mice were male, CD2 F1.
^3 The injection vehicle was saline.
^4 One intraperitoneal injection per day for 9 days.
For another assay, the system named is KB Cell. The assay can be described thus: KB Cell Culture Screen (NCI Protocol 1.600). The assay is classed as cell-based. The source says:
The chemotherapeutic activities of the fractions obtained in the isolation procedure may be determined by a KB Cell Culture Screen in accordance with the National Cancer Institute Protocol 1.600 [Geran et al., Cancer Chemother.

For the compound `O=C1NC(=O)[C@@]2(CC[C@@H](O)C2)c2ccncc21` (relative stereo) [sesbanine, trans-3-hydroxyspiro[cyclopentane-1,4'(1'H)[2,7]naphthyridine]-1',3'(2'H)-dione], the “activity against leukemia in animals (in words)” value in assay [1] is listed as “potent activity against leukemia in animals”. Also, the IC50 in the assay on KB Cell (Homo sapiens, KB, 72 h, 3 days after drug addition, active if ED 50 ≤30 μg./ml., read-out: ED 50 (dose that inhibits growth to 50% of control growth)) was determined as 0.047 µg/mL (≈ 0.202 µM). Besides, the “activity of fractions during isolation (in words)” value in the assay on KB Cell (among fractions of the respective separation step, Example 1) is recorded as “the most active”.

The values are drawn from patent US4200639A, “Sesbanine and the use thereof in treating leukemic tumors” (The United States of America as represented by the …, priority 1979, dated 1980).
